Test results reported in patent publication US9896443B2, “Perforin inhibiting benzenesulfonamide compounds, preparation and uses thereof” (Peter MacCallum Cancer Institute, priority 2012, dated 2018).
Read-outs that look alike come from different tables or passages of the source.

Experiments:
[1] = system: KHYG-1 NK cell-mediated lysis of K562 cells; test: Inhibition of KHYG-1 NK cell-mediated lysis of K562 cells (51Cr release); type: cell-based; settings: 4 h, K562 target cells, Effector:Target 2:1, 4 hours at 37° C.
Procedure: Inhibition of KHYG-1 NK Cell-Mediated Lysis of K562 Cells.
Test compounds were added to KHYG-1 cells at various concentrations up to 20 µM and incubated at RT for 20 minutes. 1×10^6 K562 target cells were labelled with 75 μCi ^51Cr in 200 μl RPMI for 90 mins at 37° C., cells were washed as described above and resuspended in 5 ml RPMI+0.1% BSA. 50 μl of ^51Cr labelled K562 leukemia target cells were added to each well of the KHYG-1 plate (Effector:Target 2:1) and incubated at 37° C. for 4 hours. ^51Cr release was assayed using a Skatron Harvesting Press and radioactivity estimated on a Wallac Wizard 1470 Automatic Gamma counter (Turku, Finland). The percentage of specific cytotoxicity was calculated by the formula: […]

recombinant perforin = recombinant perforin (UniProt P10820); type: cell-based
Procedure: Inhibition of perforin-mediated lysis of Jurkat cells.
The ability of the compounds to inhibit the lysis of nucleated (Jurkat T lymphoma) cells in the presence of 0.1% BSA, as measured by release of ^51Cr was measured. Jurkat target cells were labelled by incubation in medium with 100 μCi ^51Cr for one hour. The cells were then washed three times to remove unincorporated isotope and re-suspended at 1×10^5 cells per mL in RPMI buffer supplemented with 0.1% BSA. […] Each data point was performed in triplicate and an IC50 was calculated from the range of concentrations described to above.

[2] = lysis of Jurkat T lymphoma cells by recombinant perforin, 0.1% BSA, 30 min pre-incubation, 4 hours at 37° C.; read-out: Jurkat IC50

recombinant perforin, sequence (P10820 whole entry): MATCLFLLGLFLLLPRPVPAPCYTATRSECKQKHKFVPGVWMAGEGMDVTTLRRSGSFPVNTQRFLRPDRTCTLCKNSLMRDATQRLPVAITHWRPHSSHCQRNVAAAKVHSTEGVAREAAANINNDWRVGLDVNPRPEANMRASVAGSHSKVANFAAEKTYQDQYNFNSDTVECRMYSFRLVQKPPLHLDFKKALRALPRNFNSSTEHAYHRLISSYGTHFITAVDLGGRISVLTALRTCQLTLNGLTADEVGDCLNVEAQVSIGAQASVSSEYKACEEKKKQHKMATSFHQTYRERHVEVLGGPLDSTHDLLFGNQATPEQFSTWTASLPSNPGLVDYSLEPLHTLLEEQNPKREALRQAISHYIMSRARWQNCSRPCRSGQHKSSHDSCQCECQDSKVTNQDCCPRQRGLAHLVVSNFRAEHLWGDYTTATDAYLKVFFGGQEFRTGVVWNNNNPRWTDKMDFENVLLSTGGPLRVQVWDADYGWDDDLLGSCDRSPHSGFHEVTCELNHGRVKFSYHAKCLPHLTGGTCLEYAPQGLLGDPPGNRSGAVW

Row | Structure (SMILES) | melting point | inhibition at 20 µM [1] [%] | IC50 (recombinant perforin; read-out: Jurkat IC50; lysis of Jurkat T lymphoma cells by recombinant perforin, 0.1% BSA, 30 min pre-incubation, 4 hours at 37° C.) [µM] | IC50 (recombinant perforin; [2]) [µM]
1 | Cc1cccc(S(=O)(=O)Nc2cncc(-c3ccc(-c4ccc5c(c4)CN(C)C5=O)s3)c2)c1 [Compound 2, 3-Methyl-N-(5-(5-(2-methyl-1-oxoisoindolin-5-yl)thiophen-2-yl)pyridin-3-yl)benzenesulfonamide] | 281 to 284 °C | 27 | 7.33 | 
2 | CN1Cc2cc(-c3ccc(-c4cncc(NS(=O)(=O)c5ccccc5F)c4)s3)ccc2C1=O [Compound 4, 2-Fluoro-N-(5-(5-(2-methyl-1-oxoisoindolin-5-yl)thiophen-2-yl)pyridin-3-yl)benzene-sulfonamide] | 289 to 292 °C | 40 |  | 2.03
3 | CN1Cc2cc(-c3ccc(-c4cncc(NS(=O)(=O)c5ccccc5Cl)c4)s3)ccc2C1=O [Compound 9, 2-Chloro-N-(5-(5-(2-methyl-1-oxoisoindolin-5-yl)thiophen-2-yl)pyridin-3-yl)benzenesulfonamide] | 299 to 303 °C | 47 |  | 4.01
4 | CN1Cc2cc(-c3ccc(-c4cncc(NS(=O)(=O)c5cccc(Cl)c5)c4)s3)ccc2C1=O [Compound 10, 3-Chloro-N-(5-(5-(2-methyl-1-oxoisoindolin-5-yl)thiophen-2-yl)pyridin-3-yl)benzenesulfonamide] | 291 to 295 °C | 31 |  | 2.42
5 | CN1Cc2cc(-c3ccc(-c4cncc(NS(=O)(=O)c5ccc(Cl)c(Cl)c5)c4)s3)ccc2C1=O [Compound 12, 3,4-Dichloro-N-(5-(5-(2-methyl-1-oxoisoindolin-5-yl)thiophen-2-yl)pyridin-3-yl)benzenesulfonamide] | 256 to 259 °C | 45 |  | 1.32
6 | CN1Cc2cc(-c3ccc(-c4cncc(NS(=O)(=O)c5ccc(Cl)cc5Cl)c4)s3)ccc2C1=O [Compound 13, 2,4-Dichloro-N-(5-(5-(2-methyl-1-oxoisoindolin-5-yl)thiophen-2-yl)pyridin-3-yl)benzene-sulfonamide] | 282 to 285 °C |  |  | 15
7 | CN1Cc2cc(-c3ccc(-c4cncc(NS(=O)(=O)c5ccccc5Br)c4)s3)ccc2C1=O [Compound 15, 2-Bromo-N-(5-(5-(2-methyl-1-oxoisoindolin-5-yl)thiophen-2-yl)pyridin-3-yl)benzenesulfonamide] | 289 to 293 °C | 42 |  | 2.66
8 | CN1Cc2cc(-c3ccc(-c4cncc(NS(=O)(=O)c5cccc(Br)c5)c4)s3)ccc2C1=O [Compound 16, 3-Bromo-N-(5-(5-(2-methyl-1-oxoisoindolin-5-yl)thiophen-2-yl)pyridin-3-yl)benzenesulfonamide] | 303 to 307 °C | 20 |  | 2.11
9 | CN1Cc2cc(-c3ccc(-c4cncc(NS(=O)(=O)c5ccc(Br)cc5)c4)s3)ccc2C1=O [Compound 17, 4-Bromo-N-(5-(5-(2-methyl-1-oxoisoindolin-5-yl)thiophen-2-yl)pyridin-3-yl)benzenesulfonamide] | 276 to 279 °C | 6 |  | 8.77
10 | COc1ccccc1S(=O)(=O)Nc1cncc(-c2ccc(-c3ccc4c(c3)CN(C)C4=O)s2)c1 [Compound 18, 2-Methoxy-N-(5-(5-(2-methyl-1-oxoisoindolin-5-yl)thiophen-2-yl)pyridin-3-yl)benzenesulfonamide] | 273 to 276 °C |  |  | 14.8
11 | COc1cccc(S(=O)(=O)Nc2cncc(-c3ccc(-c4ccc5c(c4)CN(C)C5=O)s3)c2)c1 [Compound 19, 3-Methoxy-N-(5-(5-(2-methyl-1-oxoisoindolin-5-yl)thiophen-2-yl)pyridin-3-yl)benzenesulfonamide] | 278 to 280 °C | 17 |  | 2.56
12 | COc1ccc(S(=O)(=O)Nc2cncc(-c3ccc(-c4ccc5c(c4)CN(C)C5=O)s3)c2)cc1 [Compound 20, 4-Methoxy-N-(5-(5-(2-methyl-1-oxoisoindolin-5-yl)thiophen-2-yl)pyridin-3-yl)benzenesulfonamide] | 254 to 258 °C | 24 |  | 6.27
13 | CN1Cc2cc(-c3ccc(-c4cncc(NS(=O)(=O)c5ccccc5OC(F)(F)F)c4)s3)ccc2C1=O [Compound 22, N-(5-(5-(2-Methyl-1-oxoisoindolin-5-yl)thiophen-2-yl)pyridin-3-yl)-2-(trifluoromethoxy)benzenesulfonamide] | 251 to 254 °C |  |  | 17.7
14 | CN1Cc2cc(-c3ccc(-c4cncc(NS(=O)(=O)c5cccc(OC(F)(F)F)c5)c4)s3)ccc2C1=O [Compound 23, N-(5-(5-(2-Methyl-1-oxoisoindolin-5-yl)thiophen-2-yl)pyridin-3-yl)-3-(trifluoromethoxy)benzenesulfonamide] | 230 to 232 °C | 38 |  | 1.42
15 | Cc1ccc(S(=O)(=O)Nc2cncc(-c3ccc(-c4ccc5c(c4)CN(C)C5=O)s3)c2)cc1Cl [Compound 27, 3-Chloro-4-methyl-N-(5-(5-(2-methyl-1-oxoisoindolin-5-yl)thiophen-2-yl)pyridin-3-yl)benzenesulfonamide] | 277 to 279 °C | 52 |  | 
16 | CN1Cc2cc(-c3ccc(-c4cncc(NS(=O)(=O)c5cccnc5)c4)s3)ccc2C1=O [Compound 32, N-(5-(5-(2-Methyl-1-oxoisoindolin-5-yl)thiophen-2-yl)pyridin-3-yl)pyridine-3-sulfonamide] | 283 to 286 °C |  |  | 15.1
17 | COc1ncc(-c2ccc(-c3ccc4c(c3)CNC4=O)s2)cc1NS(=O)(=O)c1ccc(F)cc1F [Compound 38, 2,4-Difluoro-N-(2-methoxy-5-(5-(1-oxoisoindolin-5-yl)thiophen-2-yl)pyridin-3-yl)benzene sulphonamide] | 266 to 270 °C |  |  | 5.41
18 | O=C1NCCc2ccc(-c3ccc(-c4cncc(NS(=O)(=O)c5ccc(F)cc5F)c4)s3)cc21 [Compound 54, 2,4-Difluoro-N-(5-(5-(1-oxo-1,2,3,4-tetrahydroisoquinolin-7-yl)thiophen-2-yl)pyridin-3-yl)benzenesulfonamide] | 252 °C (dec.) |  |  | 
19 | CN1CCc2ccc(-c3ccc(-c4cncc(NS(=O)(=O)c5ccc(F)cc5F)c4)s3)cc2C1=O [Compound 55, 2,4-Difluoro-N-(5-(5-(2-methyl-1-oxo-1,2,3,4-tetrahydroisoquinolin-7-yl)thiophen-2-yl)pyridin-3-yl)benzenesulfonamide] | 280 to 283 °C | 0 |  | 
20 | O=C1c2ccc(-c3ccc(-c4cncc(NS(=O)(=O)c5ccc(F)cc5F)c4)s3)cc2CN1CCCO [Compound 57, 2,4-Difluoro-N-(5-(5-(2-(3-hydroxypropyl)-1-oxoisoindolin-5-yl)thiophen-2-yl)pyridin-3-yl)benzenesulfonamide] | 239 to 241 °C |  |  | 
21 | Cc1ccc(NS(=O)(=O)c2ccc(F)cc2F)cc1-c1ccc(-c2ccc3c(c2)CN(C)C3=O)s1 [Compound 61, 2,4-Difluoro-N-(4-methyl-3-(5-(2-methyl-1-oxoisoindolin-5-yl)thiophen-2-yl)phenyl)benzenesulfonamide] | 268 to 271 °C |  |  | 
